In patent US20100004259A1, “Tartrate Salt of (7S)-7-[(5-Fluoro-2-Methyl-Benzyl)oxy]-2-[(2R)-2-Methylpiperazin-1-YL]-6,7-Dihydro-5H-Cyclopenta[B]Pyridine” (Pfizer Inc., priority 2006, published 2010):

Legend:
[1] = hygroscopicity by dynamic vapor sorption; assay type: physicochemical
Description: Hygroscopicity was assessed using a dynamic vapor sorption technique in which an accurately weighed sample is subjected to progressively changing water vapor pressure while simultaneously recording the weight change. The experiment was conducted isothermally at 25° C.
Less than 0.5% increase in weight was detected at 90±2% relative humidity during an isothermal (25.1±0.1° C.) moisture sorption analysis conducted from approximately 1% to 90% (±2%) humidity. […] The amount of water vapor sorption may vary depending on the particle size and surface area of sample.

5HT2b [2] = target: T1, 5HT2b (Homo sapiens, UniProt P41595); test: receptor binding assay at human 5HT2b receptor; details: an amorphous salt of Formula I was tested
T1 sequence (P41595 whole entry): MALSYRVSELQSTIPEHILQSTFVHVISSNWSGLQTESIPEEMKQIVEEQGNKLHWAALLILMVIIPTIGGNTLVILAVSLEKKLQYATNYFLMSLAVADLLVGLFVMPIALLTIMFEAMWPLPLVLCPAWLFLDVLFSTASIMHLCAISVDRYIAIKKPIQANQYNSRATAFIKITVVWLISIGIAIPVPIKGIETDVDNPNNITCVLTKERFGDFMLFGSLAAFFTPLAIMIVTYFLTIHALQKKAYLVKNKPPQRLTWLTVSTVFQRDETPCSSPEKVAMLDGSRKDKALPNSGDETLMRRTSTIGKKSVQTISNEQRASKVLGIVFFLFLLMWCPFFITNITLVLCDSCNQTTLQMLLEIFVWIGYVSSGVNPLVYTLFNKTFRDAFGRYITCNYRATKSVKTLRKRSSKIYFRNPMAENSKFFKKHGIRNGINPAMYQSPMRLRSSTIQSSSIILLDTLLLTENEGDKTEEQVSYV
Description: (§1) An amorphous salt of Formula I was tested in accordance with the binding assay procedures at human receptors provided in U.S. application Ser. No. 11/395,327, and the following receptor binding data for the compound of Formula I was obtained: […]

5HT2b [3] = target: T1, 5HT2b; test: functional activity at the 5-HT2b receptor
Excerpt: (§2) Formula I of the present invention is functionally selective for 5-HT2c against 5-HT2a and 5-HT2b, by virtue of its much greater agonistic potency (lower EC50) for 5-HT2c than that observed for 5-HT2a and/or 5-HT2b or its lack of agonistic activity at 5-HT2a and/or 5-HT2b.

5HT2c [4] = target: T2, 5HT2c (Homo sapiens, UniProt P28335); test: receptor binding assay at human 5HT2c receptor; details: an amorphous salt of Formula I was tested
T2 sequence (P28335 33-458): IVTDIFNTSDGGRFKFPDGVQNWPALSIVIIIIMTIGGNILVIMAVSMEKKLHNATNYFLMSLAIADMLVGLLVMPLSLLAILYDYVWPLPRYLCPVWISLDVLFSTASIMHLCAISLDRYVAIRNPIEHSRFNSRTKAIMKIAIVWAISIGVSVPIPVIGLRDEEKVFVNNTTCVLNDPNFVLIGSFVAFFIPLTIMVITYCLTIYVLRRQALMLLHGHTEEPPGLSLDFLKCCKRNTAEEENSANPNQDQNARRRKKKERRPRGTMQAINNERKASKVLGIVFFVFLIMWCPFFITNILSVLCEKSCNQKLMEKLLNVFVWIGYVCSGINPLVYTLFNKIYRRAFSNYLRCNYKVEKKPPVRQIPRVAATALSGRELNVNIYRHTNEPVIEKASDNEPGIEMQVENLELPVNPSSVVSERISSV
Description: as §1

5HT2a [5] = target: T3, 5HT2a (Homo sapiens, UniProt P28223); test: receptor binding assay at human 5HT2a receptor; details: an amorphous salt of Formula I was tested
T3 sequence (P28223 whole entry): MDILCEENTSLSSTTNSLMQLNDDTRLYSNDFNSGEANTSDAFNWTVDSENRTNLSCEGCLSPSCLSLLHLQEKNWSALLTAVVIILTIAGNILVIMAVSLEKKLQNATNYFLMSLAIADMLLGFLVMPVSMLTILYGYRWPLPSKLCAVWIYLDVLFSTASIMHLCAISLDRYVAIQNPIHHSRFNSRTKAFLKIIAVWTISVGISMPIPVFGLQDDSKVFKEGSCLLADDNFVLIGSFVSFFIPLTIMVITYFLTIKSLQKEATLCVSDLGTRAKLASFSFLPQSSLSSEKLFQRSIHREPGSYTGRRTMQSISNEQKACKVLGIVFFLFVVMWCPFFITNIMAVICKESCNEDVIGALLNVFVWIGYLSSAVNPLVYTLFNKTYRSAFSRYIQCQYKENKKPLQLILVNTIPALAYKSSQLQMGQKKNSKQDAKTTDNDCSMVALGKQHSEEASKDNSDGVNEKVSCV

5HT2a [6] = target: T3, 5HT2a; test: functional activity at the 5-HT2a receptor
Excerpt: as §2

5HT2c [7] = target: T2, 5HT2c; test: functional activity at the 5-HT2c receptor
Excerpt: as §2

[8] = cited from earlier work
[9] = cited from earlier work; remark: listed apart in the source

## Cc1ccc(F)cc1CO[C@H]1CCc2ccc(N3CCNC[C@H]3C)nc21.O=C(O)C(O)C(O)C(=O)O [(S)-7-(5-Fluoro-2-methyl-benzyloxy)-2-((R)-2-methyl-piperazin-1-yl)-6,7-dihydro-5H-[1]pyrindine L(+)-tartrate]
[1]; at 90±2% relative humidity, isothermal (25.1±0.1° C.) moisture sorption from approximately 1% to 90% (±2%) humidity
  increase in weight (moisture sorption): Less than 0.5%
[1]; dynamic vapor sorption, isothermal at 25° C.
  hygroscopicity assessment: non-hygroscopic

## Cc1ccc(F)cc1CO[C@H]1CCc2ccc(N3CCNC[C@H]3C)nc21 [Formula I, (7S)-7-[(5-fluoro-2-methyl-benzyl)oxy]-2-[(2R)-2-methylpiperazin-1-yl]-6,7-dihydro-5H-cyclopenta[b]pyridine]
5HT2b [2]
  Ki: 7.7 nM
5HT2b [3]
  functional activity at the 5-HT2b receptor: antagonist
5HT2c [4]
  Ki: 1.5 nM
5HT2a [5]
  Ki: 4.5 nM
5HT2a [6]
  functional activity at the 5-HT2a receptor: antagonist or weak partial agonist
5HT2c [7]
  functional activity at the 5-HT2c receptor: potent, high affinity agonist

## O=C1Cc2cc(CCN3CCN(c4nsc5ccccc45)CC3)c(Cl)cc2N1 [Ziprasidone, 5-[2-[4-(1,2-benzisothiazol-3-yl)piperazin-1-yl]ethyl]-6-chloroindolin-2-one]
[8]
  protein binding: extensive
[9]; in vivo
  half-life: 6 to 7 h
[9]; taken with food
  oral bioavailability: approximately 60%
